We go through eleven molecules from patent US10322118B2, “Compounds and methods for inhibiting Cif virulence factor” (priority 2012, dated 2019).

In assay [1] the target is T1, Cif (Pseudomonas aeruginosa (strain UCBPP-PA14), UniProt A0A0H2ZD27). Kind of assay: Primary high throughput screen with fluorogenic substrate CMNGC.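 Further: fluorescence of 200 µL reactions in 96-well plates read on a plate reader, inhibitor at tenfold molar excess over Cif enzyme.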 Particulars: primary screen; test compounds at 10 μM, 1 μM Cif, 25 μM CMNGC, 60 minutes. The assay is classed as biochemical.
T1 sequence (A0A0H2ZD27 25-319 limits assumed): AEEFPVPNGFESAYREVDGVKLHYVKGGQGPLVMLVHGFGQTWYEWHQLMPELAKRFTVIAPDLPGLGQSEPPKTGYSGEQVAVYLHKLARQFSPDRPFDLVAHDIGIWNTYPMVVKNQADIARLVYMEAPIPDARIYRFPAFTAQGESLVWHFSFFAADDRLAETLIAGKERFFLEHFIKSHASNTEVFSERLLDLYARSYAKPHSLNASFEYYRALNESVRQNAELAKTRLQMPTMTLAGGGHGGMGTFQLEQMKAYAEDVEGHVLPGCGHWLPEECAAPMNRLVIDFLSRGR
Experimental: All high throughput screening assays were performed using 96-well plates, a 200 μL reaction volume, and a fluorescent plate reader. […] The fluorescent signal was measured after allowing the enzyme reaction to proceed for 60 minutes.
A library of 1600 FDA-approved compounds was screened for Cif inhibitory activity.
The screen was performed with only a 10-fold stoichiometric excess of inhibitor over Cif enzyme.
Assay [2] concerns the target T1, Cif. As to the kind of experiment: Secondary screen (sextuplicate) with fluorogenic substrate CMNGC.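 On all read-outs here: purified enzyme assay in 96-well plates, 200 µL volume, fluorescence recorded each minute across a 60 min reaction.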 The assay is classed as biochemical. Particulars: for % Inhibition, Mean ± SD / % Inhibition, plate 1 / % Inhibition, plate 2 / % Inhibition, plate 3 / % Inhibition, plate 4 / % Inhibition, plate 5 / % Inhibition, plate 6: secondary screen, 10 μM; for % Inhibition, Mean ± SD: mean of six plates; for % Inhibition, plate 1: plate number 1; for % Inhibition, plate 2: plate number 2; for % Inhibition, plate 3: plate number 3; for % Inhibition, plate 4: plate number 4; for % Inhibition, plate 5: plate number 5; for % Inhibition, plate 6: plate number 6.
Experimental: All high throughput screening assays were performed using 96-well plates, a 200 μL reaction volume, and a fluorescent plate reader. […] The fluorescent signal was measured after allowing the enzyme reaction to proceed for 60 minutes. The secondary screen was performed using the same conditions as the primary screen, except that fluorescent readings were taken every minute for the 60-minute reaction.
Subsequently, the filtered primary hits were retested to validate the observed inhibitory effect.

Where [3] appears, read: read-out: % Inhibition, Mean ± SD.
[4] abbreviates: read-out: % Inhibition, plate 1.
[5] abbreviates: read-out: % Inhibition, plate 2.
The mark [6] stands for this setting: read-out: % Inhibition, plate 3.
Setting [7] is: read-out: % Inhibition, plate 4.
Setting [8] is: read-out: % Inhibition, plate 5.
[9] abbreviates: read-out: % Inhibition, plate 6.

Structures can show the parent of a compound that is named as a salt.

Broadly, the inhibition is the change of the read-out against control, counted positive when it falls. A word on the % Inhibition: it is the share of the control response that was lost under treatment.

With `C[C@H]1O[C@H](O[C@H]2[C@H](O)[C@@H](O)[C@@H](O[C@H]3[C@H](O)[C@@H](O)C(O)O[C@@H]3CO)O[C@@H]2CO)[C@H](O)[C@@H](O)[C@@H]1N[C@H]1C=C(CO)[C@@H](O)[C@H](O)[C@H]1O` (stereo partly drawn) [Acarbose], at Cif [1], the inhibition at 10 µM came to 47%.
For the molecule `CC(=O)[C@@]12O[C@](C)(c3ccccc3)O[C@@H]1C[C@H]1[C@@H]3CCC4=CC(=O)CC[C@]4(C)[C@H]3CC[C@@]12C` [Algestone acetophenide], at Cif [2], the “% Inhibition, Mean ± SD” value is on record as −3 ± 5%; the “% Inhibition, plate 1” value was −5%; the “% Inhibition, plate 2” value is −2%; the “% Inhibition, plate 3” value came to 0%. For the same molecule, on Cif [2], the “% Inhibition, plate 4” value is −2%; the “% Inhibition, plate 5” value was 3%; the “% Inhibition, plate 6” value was −10%. Besides, at Cif [1], the “% Inhibition” value came out at 38%.
Consider `O=C(CCCN1CCN(c2ccccn2)CC1)c1ccc(F)cc1` [Azaperone], for which the inhibition at 10 µM on Cif [1] was found to be 79%.
As for `CN1CCCC(n2nc(Cc3ccc(Cl)cc3)c3ccccc3c2=O)CC1` (stereo not drawn) [Azelastine hydrochloride], the inhibition at 10 µM was 34 ± 4% at Cif [2] (setting [3]); 30% on Cif [2] (setting [4]); 31% at Cif [2] (setting [5]); 33% on Cif [2] (setting [6]); 34% at Cif [2] (setting [7]); 42% on Cif [2] (setting [8]). For the same molecule, the values for the inhibition at 10 µM on Cif [2] (setting [9]) and against Cif [1] were 30% and 48%, respectively.
As to `C[N+](C)(C)CC(=O)O` [Betaine hydrochloride], the inhibition at 10 µM was determined as 13 ± 6% at Cif [2] (setting [3]); 6% on Cif [2] (setting [4]); 10% on Cif [2] (setting [5]); 9% at Cif [2] (setting [6]); 17% at Cif [2] (setting [7]); 20% at Cif [2] (setting [8]). For the same molecule, the inhibition at 10 µM at Cif [2] (setting [9]) stood at 18%; against Cif [1] it was 33%.
With `O=C1CC2(CCCC2)CC(=O)N1CCCCN1CCN(c2ncccn2)CC1` [Buspirone hydrochloride], the inhibition at 10 µM at Cif [2] (setting [3]) was -3 ± 4%; on Cif [2] (setting [4]), 0%; on Cif [2] (setting [5]), -3%; on Cif [2] (setting [6]), 0%; at Cif [2] (setting [7]) it was -1%; on Cif [2] (setting [8]) it was -2%. Besides, the results for the inhibition at 10 µM at Cif [2] (setting [9]) and against Cif [1] were -11% and 33%, respectively.
Regarding `C[C@]12CCC(=O)C=C1C=C[C@@H]1[C@@H]2CC[C@@]2(C)[C@H]1CC[C@@]21CCC(=O)O1` [Canrenone], the inhibition at 10 µM came to 24 ± 5% at Cif [2] (setting [3]); 16% at Cif [2] (setting [4]); 27% on Cif [2] (setting [5]); 20% on Cif [2] (setting [6]); 24% on Cif [2] (setting [7]); 28% on Cif [2] (setting [8]). Further, the inhibition at 10 µM on Cif [2] (setting [9]) turned out to be 27%; against Cif [1], 36%.
With `CO[C@@]1(NC(=O)Cc2cccs2)C(=O)N2C(C(=O)O)=C(COC(N)=O)CS[C@@H]21` [Cefoxitin sodium], the inhibition at 10 µM at Cif [2] (setting [3]) is 10 ± 8%; on Cif [2] (setting [4]) it was -3%; at Cif [2] (setting [5]), 16%; on Cif [2] (setting [6]) it was 5%; on Cif [2] (setting [7]), 9%; at Cif [2] (setting [8]), 19%. Further, the inhibition at 10 µM at Cif [2] (setting [9]) was determined as 14%; on Cif [1] it was 32%.
Consider `CCCCCCCCCCCCCCCC[N+](C)(C)C.[Br-]` [Cetrimonium bromide], for which, on Cif [2], the “% Inhibition, Mean ± SD” value is 2 ± 4%; the “% Inhibition, plate 1” value is 1%; the “% Inhibition, plate 2” value is −1%; the “% Inhibition, plate 3” value was −4%. For the same molecule, on Cif [2], the “% Inhibition, plate 4” value worked out at 3%; the “% Inhibition, plate 5” value stood at 8%; the “% Inhibition, plate 6” value was 2%. Besides, on Cif [1], the “% Inhibition” value was determined as 44%.
As to `C[C@]12CC[C@H]3C(=CCc4cc(O)ccc43)[C@@H]1CCC2=O` [Equilin], on Cif [1], the inhibition at 10 µM was determined as 71%.
As for `O=C([O-])c1ccccc1-c1c2cc(Br)c(=O)cc-2oc2[c]([Hg+])c([O-])c(Br)cc12.[Na+].[Na+].[OH-]` [Merbromin], the “% Inhibition” value at Cif [1] was 47%.
